Active and inactive are the calls of the source. The rule behind the calls is not given here.

By logP is commonly meant the decadic logarithm of the partition coefficient of the neutral form, usually between octanol and water. Lower therefore signals a more hydrophilic compound. By EC50 is commonly meant the concentration giving half of the maximal effect.

One series has as its system Astrocyte. Put plainly: Cytoprotection against H2O2-induced cell death in BSO pretreated C57BL6/J mouse brain primary astrocytes assessed as increase in cell viability at 10 uM pretreated for 2 hrs followed by H2O2 addition measured after 24 hrs by MTT assay. The class given is functional, cell-based.
Settings: not given
On the technique in general: Tetrazolium assays rely on reduction of a dye to a coloured formazan, in cell work by metabolically active cells.
Take `CC(=O)N(O)CCCCCNC(=O)CCC(=O)N(O)CCCCCNC(=O)CCC(=O)N(O)CCCCCNC(=O)C12CC3CC(CC1C3)C2`: the result was Active.
On the same count and under the same terms, to `CCCCC[C@]12CC[C@@H](CC1)[C@@H](C(=O)NCCCCCN(O)C(=O)CCC(=O)NCCCCCN(O)C(=O)CCC(=O)NCCCCCN(O)C(C)=O)C2` (relative stereo) belongs “Active”.

Another series relates to SK-N-BE(2)-M17. Kind of series: Cytotoxicity against human SK-N-BE(2)-M17 cells at 100 uM 24 hrs by LDH release assay. The series is classed as cell-based. To be noted: sk-n-be(2)-m17, 24 h. For orientation: LDH leaks from cells whose membrane has failed.
For `CC(=O)N(O)CCCCCNC(=O)CCC(=O)N(O)CCCCCNC(=O)CCC(=O)N(O)CCCCCNC(=O)C12CC3CC(CC1C3)C2`, the Activity result is “Non-Toxic”.
For `CCCCC[C@]12CC[C@@H](CC1)[C@@H](C(=O)NCCCCCN(O)C(=O)CCC(=O)NCCCCCN(O)C(=O)CCC(=O)NCCCCCN(O)C(C)=O)C2` (relative stereo), the Activity result is given as “Non-Toxic”.

For a further series, the system named is SK-N-BE(2)-M17. Put plainly: Cytoprotection against PQ-induced cell death in human SK-N-BE(2)-M17 cells assessed as increase in cell viability at 100 uM pretreated for 2 hrs followed by 1 mM PQ addition measured after 24 hrs by MTT assay.
Settings: not given
The class given is functional, cell-based.
For the compound `CC(=O)N(O)CCCCCNC(=O)CCC(=O)N(O)CCCCCNC(=O)CCC(=O)N(O)CCCCCNC(=O)C12CC3CC(CC1C3)C2`, the outcome was Active.
On the same count and under the same terms, to `CCCCC[C@]12CC[C@@H](CC1)[C@@H](C(=O)NCCCCCN(O)C(=O)CCC(=O)NCCCCCN(O)C(=O)CCC(=O)NCCCCCN(O)C(C)=O)C2` (relative stereo) belongs “Active”.

For the next series, the system named is SK-N-BE(2)-M17. Kind of series: Cytoprotection against PQ-induced cell death in human SK-N-BE(2)-M17 cells assessed as increase in cell viability at 100 uM pretreated for 2 hrs followed by 1 mM PQ addition measured after 24 hrs by LDH assay. The class given is functional, cell-based.
Settings: not given
`CC(=O)N(O)CCCCCNC(=O)CCC(=O)N(O)CCCCCNC(=O)CCC(=O)N(O)CCCCCNC(=O)C12CC3CC(CC1C3)C2`: the outcome was Active.
Same read-out and setting: with `CCCCC[C@]12CC[C@@H](CC1)[C@@H](C(=O)NCCCCCN(O)C(=O)CCC(=O)NCCCCCN(O)C(=O)CCC(=O)NCCCCCN(O)C(C)=O)C2` (relative stereo) the entry was “Active”.

In another series the test system is SK-N-BE(2)-M17. Kind of series: Cytoprotection against PQ-induced cell death in human SK-N-BE(2)-M17 cells assessed as increase in cell viability at 100 uM treated post 200 uM Fecl3 and 1 mM PQ treatment measured after 24 hrs by MTT assay. The series is classed as functional, cell-based.
Settings: not given
As for `CC(=O)N(O)CCCCCNC(=O)CCC(=O)N(O)CCCCCNC(=O)CCC(=O)N(O)CCCCCNC(=O)C12CC3CC(CC1C3)C2`, the result was Active.

A further series has as its system Astrocyte. Put plainly: Cytoprotection against H2O2-induced cell death in BSO pretreated C57BL6/J mouse brain primary astrocytes assessed as increase in cell viability at 10 uM pretreated for 2 hrs followed by H2O2 addition measured after 24 hrs by LDH release assay.
Settings: not given
The series is classed as functional, cell-based.
In the case of `CCCCC[C@]12CC[C@@H](CC1)[C@@H](C(=O)NCCCCCN(O)C(=O)CCC(=O)NCCCCCN(O)C(=O)CCC(=O)NCCCCCN(O)C(C)=O)C2` (relative stereo), the result was Active.

Test system in the next series: not listed separately
Kind of series: Binding affinity to Fe3+ assessed as change in retention time for compound-Fe3+ complex by RP-HPLC analysis relative to free ligand.
Settings: not given
For `CC(=O)N(O)CCCCCNC(=O)CCC(=O)N(O)CCCCCNC(=O)CCC(=O)N(O)CCCCCNC(=O)C12CC3CC(CC1C3)C2`, the Retention time was determined as 0.48 min.
For `CCCCC[C@]12CC[C@@H](CC1)[C@@H](C(=O)NCCCCCN(O)C(=O)CCC(=O)NCCCCCN(O)C(=O)CCC(=O)NCCCCCN(O)C(C)=O)C2` (relative stereo), the Retention time stood at 3.67 min.

Test system in the next series: not listed separately
Put plainly: Octanol-water partition coefficient, log P of the compound at 1 mg by RP-HPLC analysis. The class given is physicochemical.
Settings: not given
For `CC(=O)N(O)CCCCCNC(=O)CCC(=O)N(O)CCCCCNC(=O)CCC(=O)N(O)CCCCCNC(=O)C12CC3CC(CC1C3)C2`, the lipophilicity (logP) was determined as 0.98.
Same read-out and setting: with `CCCCC[C@]12CC[C@@H](CC1)[C@@H](C(=O)NCCCCCN(O)C(=O)CCC(=O)NCCCCCN(O)C(=O)CCC(=O)NCCCCCN(O)C(C)=O)C2` (relative stereo) the figure was 2.82.

In another series the test system is SK-N-BE(2)-M17. Kind of series: Cytotoxicity against human SK-N-BE(2)-M17 cells at 100 uM 24 hrs by MTT assay. The series is classed as cell-based. The note with it: sk-n-be(2)-m17, 24 h.
As for `CC(=O)N(O)CCCCCNC(=O)CCC(=O)N(O)CCCCCNC(=O)CCC(=O)N(O)CCCCCNC(=O)C12CC3CC(CC1C3)C2`, the Activity entry is “Non-Toxic”.
Same read-out and setting: to `CCCCC[C@]12CC[C@@H](CC1)[C@@H](C(=O)NCCCCCN(O)C(=O)CCC(=O)NCCCCCN(O)C(=O)CCC(=O)NCCCCCN(O)C(C)=O)C2` (relative stereo) belongs “Non-Toxic”.

A further series relates to SK-N-BE(2)-M17. Put plainly: Cytoprotection against H2O2-induced cell death in human SK-N-BE(2)-M17 cells assessed as increase in cell viability at 100 uM treated 2 hrs post 0.8 mM H2O2 treatment measured after 24 hrs by MTT assay. The class given is functional, cell-based.
Settings: not given
Consider `CC(=O)N(O)CCCCCNC(=O)CCC(=O)N(O)CCCCCNC(=O)CCC(=O)N(O)CCCCCNC(=O)C12CC3CC(CC1C3)C2`, for which the outcome was Active.
Still for that read-out and setting: to `CCCCC[C@]12CC[C@@H](CC1)[C@@H](C(=O)NCCCCCN(O)C(=O)CCC(=O)NCCCCCN(O)C(=O)CCC(=O)NCCCCCN(O)C(C)=O)C2` (relative stereo) belongs “Active”.

Test system in another series: not listed separately
Kind of series: Binding affinity to Fe3+ assessed as [M+H]+ adduct formation by LC-MS/MS analysis.
Settings: not given
Turning to `CC(=O)N(O)CCCCCNC(=O)CCC(=O)N(O)CCCCCNC(=O)CCC(=O)N(O)CCCCCNC(=O)C12CC3CC(CC1C3)C2`, the result was Active.
On the same count and under the same terms, with `CCCCC[C@]12CC[C@@H](CC1)[C@@H](C(=O)NCCCCCN(O)C(=O)CCC(=O)NCCCCCN(O)C(=O)CCC(=O)NCCCCCN(O)C(C)=O)C2` (relative stereo) the entry was “Active”.

The subject of the next series is SK-N-BE(2)-M17. Kind of series: Cytoprotection against PQ-induced cell death in human SK-N-BE(2)-M17 cells assessed as increase in cell viability treated 2 hrs post 2 mM PQ treatment measured after 24 hrs by MTT assay.
Settings: not given
The series is classed as functional, cell-based.
On to `CC(=O)N(O)CCCCCNC(=O)CCC(=O)N(O)CCCCCNC(=O)CCC(=O)N(O)CCCCCNC(=O)C12CC3CC(CC1C3)C2`, for which the EC50 was determined as 30 µM.
`CCCCC[C@]12CC[C@@H](CC1)[C@@H](C(=O)NCCCCCN(O)C(=O)CCC(=O)NCCCCCN(O)C(=O)CCC(=O)NCCCCCN(O)C(C)=O)C2` (relative stereo): the EC50 came out at 10 µM.

In a further series the test system is SK-N-BE(2)-M17. Kind of series: Cytoprotection against PQ-induced cell death in human SK-N-BE(2)-M17 cells assessed as increase in cell viability at 100 uM treated 2 hrs post 2 mM PQ treatment measured after 24 hrs by LDH assay. The series is classed as functional, cell-based.
Settings: not given
Take `CCCCC[C@]12CC[C@@H](CC1)[C@@H](C(=O)NCCCCCN(O)C(=O)CCC(=O)NCCCCCN(O)C(=O)CCC(=O)NCCCCCN(O)C(C)=O)C2` (relative stereo): the outcome was Active.

For another series, the system named is SK-N-BE(2)-M17. Put plainly: Cytoprotection against H2O2-induced cell death in human SK-N-BE(2)-M17 cells assessed as increase in cell viability at 100 uM treated 2 hrs post 0.8 mM H2O2 treatment measured after 24 hrs by LDH assay. The series is classed as functional, cell-based.
Settings: not given
For the compound `CCCCC[C@]12CC[C@@H](CC1)[C@@H](C(=O)NCCCCCN(O)C(=O)CCC(=O)NCCCCCN(O)C(=O)CCC(=O)NCCCCCN(O)C(C)=O)C2` (relative stereo), the outcome was Active.

The test system of another series is SK-N-BE(2)-M17. Put plainly: Cytoprotection against H2O2-induced cell death in human SK-N-BE(2)-M17 cells assessed as increase in cell viability at 100 uM pretreated for 2 hrs followed by 1 mM H2O2 addition measured after 24 hrs by MTT assay. The class given is functional, cell-based.
Settings: not given
On to `CC(=O)N(O)CCCCCNC(=O)CCC(=O)N(O)CCCCCNC(=O)CCC(=O)N(O)CCCCCNC(=O)C12CC3CC(CC1C3)C2`, for which the outcome was Active.
On the same count and under the same terms, to `CCCCC[C@]12CC[C@@H](CC1)[C@@H](C(=O)NCCCCCN(O)C(=O)CCC(=O)NCCCCCN(O)C(=O)CCC(=O)NCCCCCN(O)C(C)=O)C2` (relative stereo) belongs “Active”.

The test system of the next series is SK-N-BE(2)-M17. Put plainly: Cytoprotection against PQ-induced cell death in human SK-N-BE(2)-M17 cells assessed as increase in cell viability at 100 uM treated 2 hrs post 2 mM PQ treatment measured after 24 hrs by MTT assay. The series is classed as functional, cell-based.
Settings: not given
For `CC(=O)N(O)CCCCCNC(=O)CCC(=O)N(O)CCCCCNC(=O)CCC(=O)N(O)CCCCCNC(=O)C12CC3CC(CC1C3)C2`, the result was Active.
Consider `CCCCC[C@]12CC[C@@H](CC1)[C@@H](C(=O)NCCCCCN(O)C(=O)CCC(=O)NCCCCCN(O)C(=O)CCC(=O)NCCCCCN(O)C(C)=O)C2` (relative stereo), for which the result was Active.

Test system in a further series: not listed separately
Kind of series: Binding affinity to Fe3+ assessed as [M+2H]+ adduct formation by LC-MS/MS analysis.
Settings: not given
Turning to `CC(=O)N(O)CCCCCNC(=O)CCC(=O)N(O)CCCCCNC(=O)CCC(=O)N(O)CCCCCNC(=O)C12CC3CC(CC1C3)C2`, the result was Active.
Same read-out and setting: with `CCCCC[C@]12CC[C@@H](CC1)[C@@H](C(=O)NCCCCCN(O)C(=O)CCC(=O)NCCCCCN(O)C(=O)CCC(=O)NCCCCCN(O)C(C)=O)C2` (relative stereo) the entry was “Active”.

The test system of the next series is SK-N-BE(2)-M17. Put plainly: Cytoprotection against H2O2-induced cell death in human SK-N-BE(2)-M17 cells assessed as increase in cell viability at 100 uM pretreated for 2 hrs followed by 1 mM H2O2 addition measured after 24 hrs by LDH assay. The series is classed as functional, cell-based.
Settings: not given
Turning to `CC(=O)N(O)CCCCCNC(=O)CCC(=O)N(O)CCCCCNC(=O)CCC(=O)N(O)CCCCCNC(=O)C12CC3CC(CC1C3)C2`, the result was Active.
On the same count and under the same terms, with `CCCCC[C@]12CC[C@@H](CC1)[C@@H](C(=O)NCCCCCN(O)C(=O)CCC(=O)NCCCCCN(O)C(=O)CCC(=O)NCCCCCN(O)C(C)=O)C2` (relative stereo) the entry was “Active”.

Test system in another series: not listed separately
Kind of series: Binding affinity to Fe3+ in ferric ammonium citrate loaded C57BL6/J mouse brain primary astrocytes assessed as iron depletion at 100 uM treated 2 hrs post 125 uM FAC loading measured after 2 hrs by ICP-MS analysis. The series is classed as cell-based.
Settings: not given
`CCCCC[C@]12CC[C@@H](CC1)[C@@H](C(=O)NCCCCCN(O)C(=O)CCC(=O)NCCCCCN(O)C(=O)CCC(=O)NCCCCCN(O)C(C)=O)C2` (relative stereo): the result was Active.

Source of the values: ChEMBL document CHEMBL4184139, “Adamantyl- and other polycyclic cage-based conjugates of desferrioxamine B (DFOB) for treating iron-mediated toxicity in cell models of Parkinson's disease” (Bioorg Med Chem Lett, 2017).
